Holding throughout (type): cell-based
Assay [1] has as its system HEK293 cells overexpressing APOL1 G2. Kind of assay: APOL1 G2 HEK293 cell rescue assay (reversal of cell death caused by overexpression of APOL1). The conditions noted are these: geometric mean of at least 2 assay runs, † = single assay run. Summed up: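 Each compound tested in duplicate wells on one plate per run, with values usually the geometric mean across at least two runs on different days, occasionally from one run only. Read-out: concentration giving half-maximal rescue of APOL1 G2 overexpression-induced death of HEK293 cells.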

The subject of assay [2] is HEK293 clonal cell line overexpressing APOL1 G1. Kind of assay: APOL1 G1 HEK293 cell rescue assay (Example B3). The conditions noted are these: geometric mean of at least 2 runs, † = single run, ¥ = concentration at 50% rescue estimated (no sigmoidal curve). Summed up:
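Rescue of cell death caused by APOL1 G1 overexpression was measured in a clonal HEK293 line. Compounds were tested in duplicate on one plate, and EC50s were geometric means across at least two runs on different days. Some values are estimated 50%-rescue concentrations where curve fitting failed.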

Assay [3] has as its system human immortalized podocytes inducibly expressing APOL1 G2. Kind of assay: APOL1 G2 podocyte cell rescue assay (Example B4). The settings on record: differentiated human podocytes, doxycycline-induced APOL1 G2, CellTiter-Glo, geometric mean of at least 2 runs, † = single run. Here is the method: APOL1 G2 human immortalized podocyte viability assay for measurement of cytotoxicity reversal by compound (APOL1 G2 podocyte cell rescue assay).
Cell Handling. The hTERT-immortalized kidney podocyte cell line was procured from the laboratory of Dr. Moin Saleem at the University of Bristol, UK (Nephrology 17 (2012) 525-531; doi:10.1111/j.1440-1797.2012.01619.x; herein incorporated by reference in its entirety). Parental and engineered cell lines were cultured in RPMI 1640 media (Gibco, 11875093) with 10% Tet System Approved FBS (Takara, 631101). The engineered cell line was maintained under selection (2.5 μg/mL puromycin). Cell lines were maintained and engineered at 33° C. Cell cultures were transferred to 37° C. for 10 to 14 days to initiate differentiation (Nephrology 17 (2012) 525-531; doi:10.1111/j.1440-1797.2012.01619.x; herein incorporated by reference in its entirety). During this time, media was refreshed every 3 days. After differentiation, cells engineered to inducibly express APOL1 G2 were used in the podocyte cell rescue assay.
Cell Line Engineering. The APOL1 G2 coding sequence was cloned into the pLVX-TetOne-Puro vector and verified by sequencing (Genscript Biotech). This construct was designed to have a C-terminal HiBiT tag. Lentiviral packaging of the vector was conducted using the Lenti-X Packaging Single Shots (VSVG) system according to manufacturer instructions (Takara Bio, 631275). A stable cell line was generated by transfecting the parental podocyte cell line with the concentrated virus in media with 5 μg/mL polybrene (Sigma, TR-1003-G). Media was changed the following day. 72 hours post transfection, 2.5 μg/mL puromycin (Gibco, A1113803) was added to the cells and cells were maintained in selection media thereafter. This APOL1 G2 stable cellular pool was subjected to a stringent limiting dilution to generate a pure stable clone (Podocyte/pLVX-TetOne APOL1 G2/clone D10) capable of inducible expression of APOL1 G2.
Assay Setup. T175 flasks containing differentiated podocytes engineered to inducibly express APOL1 G2 (Podocyte/pLVX-TetOne APOL1 G2/clone D10) were washed once with 15 mL of DPBS (Thermo Fisher, 14190-144). These flasks were each trypsinized with 3 mL of prewarmed TrypLE Express (Gibco, 12605-010) and incubated at 37° C. with 5% CO2 until cells detached and neutralized with 7 mL of prewarmed assay media (RPMI 1640 media with 10% Tet System Approved FBS, no selection agent). Cells were pooled and the resulting suspension was gently mixed. The cell suspension was counted using a Countess Cell Counting Chamber (Invitrogen) and the cell concentration was adjusted to 240,000 cells/mL using assay media. Next, 25 μL of a 480 ng/mL working stock of doxycycline diluted in assay media was added to an assay ready plate. All experiments were performed in 384-well, white, solid bottom, tissue culture treated plates (Greiner, 781080). The assay ready compound plates were generated with duplicate 8-point compound dilution series that consisted of 3-fold stepwise dilutions (0.4% DMSO final). The plates were centrifuged at 1000 rpm for 1 minute. 25 μL of diluted cell suspension (final cell density=6,000 cells/well) was added to each well. The plates were centrifuged again at 1000 rpm for 1 minute and then incubated in a humidified incubator (37° C. with 5% CO2). After 95 hours, the assay plates were removed from the incubator and allowed to equilibrate to room temperature for 1 hour. CellTiter-Glo® reagent (Promega, G7570) was prepared according to the manufacturer's instructions. 25 μL of CellTiter-Glo® reagent was added to each well. Assay plates were sealed with foil and mixed for 5 minutes on an orbital shaker (500 rpm) to induce cell lysis. Plates were centrifuged at 1000 rpm for 1 minute. 10 minutes after CellTiter-Glo® reagent addition, an Envision plate reader (Perkin Elmer) was used to measure the luminescent signal of each assay plate. Collaborative Drug Discovery software was utilized for graphing data. […]

Assay [4] deals with Trypanosoma brucei Lister 427 VSG221 with APOL1 G0 recombinant protein. Kind of assay: APOL1 G0 trypanosome cell rescue assay (Example B5). The settings on record: Trypanosoma brucei, 20 h, read-out: APOL1 G0 Trypanosome Rescue EC50, Trypanosoma brucei Lister 427 VSG221 with APOL1 G0 recombinant protein, 20 hours, CellTiter-Glo; geometric mean of at least 2 assay runs; † = single assay run. The gist of the method: (§1)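 Luminescent ATP read-out (CellTiter-Glo) of trypanosome viability after 20 h at 37° C. Bloodstream T. brucei Lister 427 VSG221, 250/well in modified HMI-9, were exposed to recombinant mature APOL1 (aa 28-398) from a 2 μg/mL addition, plus compound in 11-point 2-fold series.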

Assay [5] has as its system Trypanosoma brucei Lister 427 VSG221 with APOL1 G2 recombinant protein. In words: APOL1 G2 trypanosome cell rescue assay (Example B5). The conditions noted are these: Trypanosoma brucei, 20 h, read-out: APOL1 G2 Trypanosome Rescue EC50, Trypanosoma brucei Lister 427 VSG221 with APOL1 G2 recombinant protein, 20 hours, CellTiter-Glo; geometric mean of at least 2 assay runs; † = single assay run. The gist of the method: as §1
(ATP-based viability assays read luminescence as a measure of living cells.)

Assay [6] has as its system Trypanosoma brucei Lister 427 VSG221 with APOL1 G1 recombinant protein. Kind of assay: APOL1 G1 trypanosome cell rescue assay (Example B5). The conditions noted are these: Trypanosoma brucei, 20 h, read-out: APOL1 G1 Trypanosome Rescue EC50, Trypanosoma brucei Lister 427 VSG221 with APOL1 G1 recombinant protein, 20 hours, CellTiter-Glo; geometric mean of at least 2 assay runs; † = single assay run. The gist of the method: as §1

The mark [7] stands for this setting: Homo sapiens, HEK293, HEK293 overexpressing APOL1 G2.
Setting [8] is: Homo sapiens, HEK293, HEK293 clonal line overexpressing APOL1 G1.

As usually defined, the EC50 is the midpoint of the concentration-response curve. Regarding `O=C(NC1CCS(=O)(=O)C1)c1ccc(OCCN2CCC3(CC2)C(=O)Nc2ccc(Cl)cc23)cc1F` (single isomer, unassigned) [Compound 242, 4-(2-{5-chloro-2-oxo-1,2-dihydrospiro[indole-3,4′-piperidin]-1′-yl}ethoxy)-N-[(3S) or (3R)-1,1-dioxo-1λ^6-thiolan-3-yl]-2-fluorobenzamide], the concentration giving a half-maximal response (EC50) was 74 nM in assay [1] (setting [7]), 316 nM in assay [2] (setting [8]) and 19.7 nM in assay [3].
`O=C(NC1CCS(=O)(=O)C1)c1ccc(OCCN2CCC3(CC2)C(=O)Nc2ccc(Cl)cc23)cc1F` (single isomer, unassigned) [Compound 243, 4-(2-{5-chloro-2-oxo-1,2-dihydrospiro[indole-3,4′-piperidin]-1′-yl}ethoxy)-N-[(3R) or (3S)-1,1-dioxo-1λ^6-thiolan-3-yl]-2-fluorobenzamide]: the values for the EC50 in assay [1] (HEK293 overexpressing APOL1 G2), in assay [2] (HEK293 clonal line overexpressing APOL1 G1) and in assay [3] were 46 nM, 208 nM and 4.11 nM, respectively.
Regarding `O=C(NC1CCS(=O)(=O)CC1)c1ccc(OCCN2CCC3(CC2)C(=O)Nc2ccc(Cl)cc23)cc1F` [Compound 240, 4-(2-{5-chloro-2-oxo-1,2-dihydrospiro[indole-3,4′-piperidin]-1′-yl}ethoxy)-N-(1,1-dioxo-1λ^6-thian-4-yl)-2-fluorobenzamide], the EC50 was 52.6 nM in assay [1] (setting [7]), 282 nM in assay [2] (setting [8]) and 13.9 nM in assay [3] (Homo sapiens).
For `O=C1Nc2ccc(Cl)cc2C12CCN(CCOc1cnc(CCO)nc1)CC2` [Compound 331, 5-chloro-1′-(2-{[2-(2-hydroxyethyl)pyrimidin-5-yl]oxy}ethyl)-1,2-dihydrospiro[indole-3,4′-piperidin]-2-one] the same measures were 166 nM, 440 nM and 85.7 nM.
With `C[C@]1(O)C[C@@H](n2c(=O)n(CO)c3cc(OCCN4CCC5(CC4)C(=O)Nc4ccc(C#N)cc45)cc(C(F)(F)F)c32)C1` [Compound 469, 1′-(2-{[3-(hydroxymethyl)-2-oxo-1-[(cis)-3-hydroxy-3-methylcyclobutyl]-7-(trifluoromethyl)-2,3-dihydro-1H-1,3-benzodiazol-5-yl]oxy}ethyl)-2-oxo-1,2-dihydrospiro[indole-3,4′-piperidine]-5-carbonitrile], the EC50 in assay [1] (setting [7]) is 19.9 nM; in assay [2] (setting [8]), 48.7 nM; in assay [4], 9.76 nM; in assay [5], 5.33 nM; in assay [6], 15.5 nM.

These data come from patent US12344610B2, “APOL1 inhibitors and methods of use” (Maze Therapeutics, Inc., priority 2022, dated 2025).
